Assay results taken from PubChem BioAssay (NCI).
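The compound was tested at five concentrations on cells cultured in 96-well plates, with a 48-hour exposure period. GI50: concentration for 50% inhibition of growth. TGI: concentration producing complete growth inhibition.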

What was measured:
Assay in all cases: DTP human tumour cell line panel, 48 h
786-0 renal = system: 786-0 renal
A549 NSCLC = system: A549 NSCLC
ACHN renal = system: ACHN renal
CAKI-1 renal = system: CAKI-1 renal
CCRF-CEM leukemia = system: CCRF-CEM leukemia
COLO 205 colon = system: COLO 205 colon
DU-145 prostate = system: DU-145 prostate
HCT-116 colon = system: HCT-116 colon
HCT-15 colon = system: HCT-15 colon
HL-60(TB) leukemia = system: HL-60(TB) leukemia
HOP-62 NSCLC = system: HOP-62 NSCLC
HS 578T breast = system: HS 578T breast
HT29 colon = system: HT29 colon
IGROV1 ovarian = system: IGROV1 ovarian
K-562 leukemia = system: K-562 leukemia
KM12 colon = system: KM12 colon
LOX IMVI melanoma = system: LOX IMVI melanoma
M14 melanoma = system: M14 melanoma
MCF7 breast = system: MCF7 breast
MDA-MB-231 breast = system: MDA-MB-231 breast
MDA-MB-435 = system: MDA-MB-435
NCI-H226 lung = system: NCI-H226 lung
NCI-H23 lung = system: NCI-H23 lung
NCI-H460 lung = system: NCI-H460 lung
NCI-H522 lung = system: NCI-H522 lung
NCI/ADR-RES ovarian = system: NCI/ADR-RES ovarian
OVCAR-3 ovarian = system: OVCAR-3 ovarian
OVCAR-4 ovarian = system: OVCAR-4 ovarian
OVCAR-5 ovarian = system: OVCAR-5 ovarian
OVCAR-8 ovarian = system: OVCAR-8 ovarian
PC-3 prostate = system: PC-3 prostate
RPMI-8226 leukemia = system: RPMI-8226 leukemia
RXF 393 renal = system: RXF 393 renal
SF-268 CNS = system: SF-268 CNS
SF-295 CNS = system: SF-295 CNS
SK-MEL-28 melanoma = system: SK-MEL-28 melanoma
SK-OV-3 ovarian = system: SK-OV-3 ovarian
SN12C renal = system: SN12C renal
SNB-19 CNS = system: SNB-19 CNS
SNB-75 CNS = system: SNB-75 CNS
SR leukemia = system: SR leukemia
T-47D breast = system: T-47D breast
TK-10 renal = system: TK-10 renal
U251 CNS = system: U251 CNS
UACC-257 melanoma = system: UACC-257 melanoma
UO-31 renal = system: UO-31 renal
A498 renal = system: A498 renal
BT-549 breast = system: BT-549 breast
EKVX NSCLC = system: EKVX NSCLC
HOP-92 NSCLC = system: HOP-92 NSCLC
MALME-3M melanoma = system: MALME-3M melanoma
MOLT-4 leukemia = system: MOLT-4 leukemia
SF-539 CNS = system: SF-539 CNS
SK-MEL-2 melanoma = system: SK-MEL-2 melanoma
SK-MEL-5 melanoma = system: SK-MEL-5 melanoma
SW-620 colon = system: SW-620 colon
UACC-62 melanoma = system: UACC-62 melanoma

Compound: CN(C)CCCCn1ccc2c1C(=O)c1c(c(O)c3ccccc3c1O)C2=O
- GI50 (786-0 renal): 12.2 µM
- TGI (786-0 renal): 25.3 µM
- GI50 (A549 NSCLC): 18.9 µM
- TGI (A549 NSCLC): 36.8 µM
- GI50 (ACHN renal): 14.8 µM
- TGI (ACHN renal): 27.9 µM
- GI50 (CAKI-1 renal): 4.02 µM
- TGI (CAKI-1 renal): 17.5 µM
- GI50 (CCRF-CEM leukemia): 1.32 µM
- TGI (CCRF-CEM leukemia): 4.54 µM
- GI50 (COLO 205 colon): 7.05 µM
- TGI (COLO 205 colon): 21 µM
- GI50 (DU-145 prostate): 20.1 µM
- TGI (DU-145 prostate): 41.9 µM
- GI50 (HCT-116 colon): 9.03 µM
- TGI (HCT-116 colon): 21.1 µM
- GI50 (HCT-15 colon): 16 µM
- TGI (HCT-15 colon): 29.4 µM
- GI50 (HL-60(TB) leukemia): 10.4 µM
- TGI (HL-60(TB) leukemia): 23.4 µM
- GI50 (HOP-62 NSCLC): 15.8 µM
- TGI (HOP-62 NSCLC): 31 µM
- GI50 (HS 578T breast): 33.1 µM
- TGI (HS 578T breast): 60.9 µM
- GI50 (HT29 colon): 5.53 µM
- TGI (HT29 colon): 18.4 µM
- GI50 (IGROV1 ovarian): 18.6 µM
- TGI (IGROV1 ovarian): > 100 µM
- GI50 (K-562 leukemia): 1.78 µM
- TGI (K-562 leukemia): 4.07 µM
- GI50 (KM12 colon): 10.4 µM
- TGI (KM12 colon): 24.4 µM
- GI50 (LOX IMVI melanoma): 10.4 µM
- TGI (LOX IMVI melanoma): 24.2 µM
- GI50 (M14 melanoma): 2.78 µM
- TGI (M14 melanoma): 8.7 µM
- GI50 (MCF7 breast): 11.3 µM
- TGI (MCF7 breast): 28.4 µM
- GI50 (MDA-MB-231 breast): 17 µM
- TGI (MDA-MB-231 breast): 95.6 µM
- GI50 (MDA-MB-435): 2.01 µM
- TGI (MDA-MB-435): 3.71 µM
- GI50 (NCI-H226 lung): 6.56 µM
- TGI (NCI-H226 lung): 21.8 µM
- GI50 (NCI-H23 lung): 11.2 µM
- TGI (NCI-H23 lung): 23.3 µM
- GI50 (NCI-H460 lung): 19.2 µM
- TGI (NCI-H460 lung): 36.9 µM
- GI50 (NCI-H522 lung): 33.8 µM
- TGI (NCI-H522 lung): > 100 µM
- GI50 (NCI/ADR-RES ovarian): 13.3 µM
- TGI (NCI/ADR-RES ovarian): 27.5 µM
- GI50 (OVCAR-3 ovarian): 2.98 µM
- TGI (OVCAR-3 ovarian): 15.9 µM
- GI50 (OVCAR-4 ovarian): 19.6 µM
- TGI (OVCAR-4 ovarian): 43.1 µM
- GI50 (OVCAR-5 ovarian): 12.9 µM
- TGI (OVCAR-5 ovarian): 25.6 µM
- GI50 (OVCAR-8 ovarian): 11.5 µM
- TGI (OVCAR-8 ovarian): 25.6 µM
- GI50 (PC-3 prostate): 10 µM
- TGI (PC-3 prostate): 23.4 µM
- GI50 (RPMI-8226 leukemia): 1.74 µM
- TGI (RPMI-8226 leukemia): 7.52 µM
- GI50 (RXF 393 renal): 2.18 µM
- TGI (RXF 393 renal): 8.91 µM
- GI50 (SF-268 CNS): 11 µM
- TGI (SF-268 CNS): 30.6 µM
- GI50 (SF-295 CNS): 4.63 µM
- TGI (SF-295 CNS): 15.5 µM
- GI50 (SK-MEL-28 melanoma): 14.7 µM
- TGI (SK-MEL-28 melanoma): 28.2 µM
- GI50 (SK-OV-3 ovarian): 11.4 µM
- TGI (SK-OV-3 ovarian): 24 µM
- GI50 (SN12C renal): 14.1 µM
- TGI (SN12C renal): 28.6 µM
- GI50 (SNB-19 CNS): 14.6 µM
- TGI (SNB-19 CNS): 30.5 µM
- GI50 (SNB-75 CNS): 15.8 µM
- TGI (SNB-75 CNS): 35.8 µM
- GI50 (SR leukemia): 4.36 µM
- TGI (SR leukemia): 23.6 µM
- GI50 (T-47D breast): 3.77 µM
- TGI (T-47D breast): 22.8 µM
- GI50 (TK-10 renal): 0.501 µM
- TGI (TK-10 renal): 7.73 µM
- GI50 (U251 CNS): 17.9 µM
- TGI (U251 CNS): 31.7 µM
- GI50 (UACC-257 melanoma): 15.5 µM
- TGI (UACC-257 melanoma): 29.5 µM
- GI50 (UO-31 renal): 33 µM
- TGI (UO-31 renal): > 100 µM

Compound: COc1ccc2c(c1)c(-c1ccc(-c3cn(C)c4ccc(OC)cc34)[nH]1)cn2C
- GI50 (786-0 renal): 12.2 µM
- TGI (786-0 renal): 36.1 µM
- GI50 (A498 renal): 10.9 µM
- TGI (A498 renal): 49.1 µM
- GI50 (A549 NSCLC): 4.04 µM
- TGI (A549 NSCLC): 17.6 µM
- GI50 (ACHN renal): 1.91 µM
- TGI (ACHN renal): 3.54 µM
- GI50 (BT-549 breast): 2.09 µM
- TGI (BT-549 breast): 5.3 µM
- GI50 (CAKI-1 renal): 3.36 µM
- TGI (CAKI-1 renal): 11.2 µM
- GI50 (CCRF-CEM leukemia): 2.03 µM
- TGI (CCRF-CEM leukemia): 5.8 µM
- GI50 (COLO 205 colon): 1.92 µM
- TGI (COLO 205 colon): 4.74 µM
- GI50 (DU-145 prostate): 10.6 µM
- TGI (DU-145 prostate): 31.1 µM
- GI50 (EKVX NSCLC): 1.73 µM
- TGI (EKVX NSCLC): 3.74 µM
- GI50 (HCT-116 colon): 3.04 µM
- TGI (HCT-116 colon): 12.7 µM
- GI50 (HCT-15 colon): 1.84 µM
- TGI (HCT-15 colon): 3.91 µM
- GI50 (HL-60(TB) leukemia): 2.36 µM
- TGI (HL-60(TB) leukemia): 5.69 µM
- GI50 (HOP-62 NSCLC): 10.1 µM
- TGI (HOP-62 NSCLC): 33.5 µM
- GI50 (HOP-92 NSCLC): 2.58 µM
- TGI (HOP-92 NSCLC): 7.21 µM
- GI50 (HS 578T breast): 1.36 µM
- TGI (HS 578T breast): 4.24 µM
- GI50 (HT29 colon): 9.38 µM
- TGI (HT29 colon): 42 µM
- GI50 (IGROV1 ovarian): 1.89 µM
- TGI (IGROV1 ovarian): 4.35 µM
- GI50 (K-562 leukemia): 1.48 µM
- TGI (K-562 leukemia): 6.8 µM
- GI50 (KM12 colon): 2.75 µM
- TGI (KM12 colon): 9.59 µM
- GI50 (LOX IMVI melanoma): 2.03 µM
- TGI (LOX IMVI melanoma): 4.39 µM
- GI50 (M14 melanoma): 3.97 µM
- TGI (M14 melanoma): 20.3 µM
- GI50 (MALME-3M melanoma): 2.64 µM
- TGI (MALME-3M melanoma): 9.03 µM
- GI50 (MCF7 breast): 5.18 µM
- TGI (MCF7 breast): 24.4 µM
- GI50 (MDA-MB-435): 4.92 µM
- TGI (MDA-MB-435): 20.6 µM
- GI50 (MOLT-4 leukemia): 4.13 µM
- TGI (MOLT-4 leukemia): 29.7 µM
- GI50 (NCI-H226 lung): 8.2 µM
- TGI (NCI-H226 lung): 22.2 µM
- GI50 (NCI-H23 lung): 4.84 µM
- TGI (NCI-H23 lung): 33 µM
- GI50 (NCI-H460 lung): 4.09 µM
- TGI (NCI-H460 lung): 19.5 µM
- GI50 (NCI/ADR-RES ovarian): 3.39 µM
- TGI (NCI/ADR-RES ovarian): 20 µM
- GI50 (OVCAR-4 ovarian): 1.94 µM
- TGI (OVCAR-4 ovarian): 4.01 µM
- GI50 (OVCAR-5 ovarian): 3.11 µM
- TGI (OVCAR-5 ovarian): 11 µM
- GI50 (OVCAR-8 ovarian): 2.71 µM
- TGI (OVCAR-8 ovarian): 12.2 µM
- GI50 (PC-3 prostate): 1.58 µM
- TGI (PC-3 prostate): 5.71 µM
- GI50 (RPMI-8226 leukemia): 1.28 µM
- TGI (RPMI-8226 leukemia): 3.38 µM
- GI50 (RXF 393 renal): 1.4 µM
- TGI (RXF 393 renal): 3.52 µM
- GI50 (SF-268 CNS): 3.45 µM
- TGI (SF-268 CNS): 18.1 µM
- GI50 (SF-295 CNS): 4.59 µM
- TGI (SF-295 CNS): 45.7 µM
- GI50 (SF-539 CNS): 1.92 µM
- TGI (SF-539 CNS): 3.96 µM
- GI50 (SK-MEL-2 melanoma): 4 µM
- TGI (SK-MEL-2 melanoma): 22.2 µM
- GI50 (SK-MEL-28 melanoma): 3.18 µM
- TGI (SK-MEL-28 melanoma): 12.4 µM
- GI50 (SK-MEL-5 melanoma): 4.2 µM
- TGI (SK-MEL-5 melanoma): 14.4 µM
- GI50 (SK-OV-3 ovarian): 3.19 µM
- TGI (SK-OV-3 ovarian): 20.9 µM
- GI50 (SN12C renal): 2.77 µM
- TGI (SN12C renal): 10.9 µM
- GI50 (SNB-19 CNS): 3.34 µM
- TGI (SNB-19 CNS): 14.4 µM
- GI50 (SNB-75 CNS): 2.25 µM
- TGI (SNB-75 CNS): 6.26 µM
- GI50 (SR leukemia): 1.31 µM
- TGI (SR leukemia): 4.01 µM
- GI50 (SW-620 colon): 2.26 µM
- TGI (SW-620 colon): 5.86 µM
- GI50 (TK-10 renal): 3.56 µM
- TGI (TK-10 renal): 10.7 µM
- GI50 (U251 CNS): 1.4 µM
- TGI (U251 CNS): 3.52 µM
- GI50 (UACC-257 melanoma): 13.7 µM
- TGI (UACC-257 melanoma): 38.7 µM
- GI50 (UACC-62 melanoma): 2.14 µM
- TGI (UACC-62 melanoma): 6.55 µM
- GI50 (UO-31 renal): 1.42 µM
- TGI (UO-31 renal): 2.83 µM
